We go through 7 molecules from patent publication US9359314B2, “Thiazine amide derivative and pharmaceutical composition and use thereof” (Institute Of Pharmacology And Toxicology Academy Of …, priority 2012, dated 2016).

Series [1] has as its system chicken embryonic dorsal root ganglia. The experiment in a line: Neurotrophic activity: in-vitro serum-free culture model of chicken embryonic dorsal root ganglia, neurite growth score. The series is classed as cell-based. The note with it: 48 h, score 0-3, control 0.33. The method, then:
The neurotrophic activity of the compound of the present invention can be reflected on a variety of in-vitro biological models, such as an in-vitro serum-free culture model of chicken embryonic dorsal root ganglia. Chicken embryo incubated for 8 d was used, and spine and ganglia on the two sides were exposed under a dissecting microscope in sterile environment. The dorsal root ganglia was picked one by one with tweezers, inoculated into culture bottles laid with rat tail collagen according to 5-6 dorsal root ganglia per bottle, two bottles were prepared per dose, and cultured at 37° C., 5% of CO2, for 1 h in an incubator for adherence, then added with a serum-free culture medium DMEM containing NGF (0.15 ng/mL) and the compound of the present invention, while the control group was only added with the culture medium and the same dose of NGF. After being cultured in the incubator for 48 h, the growth of the neurite around dorsal root ganglia was observed under an inverted phase contrast microscope and scored according to the length and density of the neurite, wherein 0 point represents no neurite; 1 point represents the neurite was sparse; 2 points represent the neurite was relatively long or dense; and 3 points represent the neurite was long and dense. The score of the growth of neurite of chicken embryonic dorsal root ganglion under the promotion of the compound of the present invention with different dosage was shown in table 1, wherein each score is an average of five dorsal root ganglia.

Series [2] deals with BCAO-LBP mice. Description: Anti incomplete cerebral ischemia effect in mouse bilateral carotid artery occlusion with low blood pressure (BCAO-LBP) model, intragastric administration. The series is classed as in vivo, Kunming mice. The note with it: 30 mg/kg i.g once per day for 3 d, x ± SEM; for Neural deficit score: medium group 3.92 ± 0.25; for MDA content: whole brain, medium group 40.94 ± 1.754. The source says: The example, which took Kunming mice as experimental subjects, investigated the protection of prevention administration of the compound of the present invention against incomplete cerebral ischemia of mice, through intravenous and intragastric administration, on mouse bilateral carotid artery occlusion with low blood pressure (BCAO-LBP) model, by measuring neurological function score and MDA content in brain.
2.1.2 Preparation of drug for intragastric administration: the compound of the present invention was made into 30 mg/kg by using 0.7% CMC-Na, fully and uniformly mixed with sonication to afford a solution of 1.5 mg/ml. Intragastric (i.g) administration was performed according to 0.2 ml/10 g.
28 mice which had adapted to the laboratory environment for one week were divided into balanced groups according to body weight, i.g administered respectively with 0.7% CMC-Na or the compound of the present invention, once per day for continuous 3 d. The specific groups were as follows:
drug group: 12 mice, with i. g of solution of compounds of the present invention separately, wherein the dosage was 30 mg/kg
2.3.1 Mouse bilateral carotid artery ligation: the mouse was performed with orbit bloodletting (about 30% of the total blood volume of the mouse) to lower the blood pressure 1 h later after last administration, then the mouse was fixed on an operation plate in a supine position, and an incision in the middle of the neck was made. The common carotid artery was exposed with blunt separation, and 2 sutures were prepared under each end of the exposed artery, and both end of the artery were ligatured, respectively. When the ligation was completed for the […], started timing, then cut the common carotid artery between the two ligations, and the incision was sutured. In the sham operation group, the common carotid artery was separated without ligation. The mouse was rapidly released after the operation, the behavior in 6 h and the death time of the mouse was observed and recorded (scored by a blind method according to the following table). The brain was quickly took out after death, the cerebellum was removed, and the MDA content in the whole brain was determined by a TBA method.
The brain of a mouse was taken out, weighted, prepared into 15% brain homogenate with N.S, 1.2 ml of the homogenate was taken out and put into a 37° C. water bath for 1 h (shaked once every 10 min), then taken out from water, added with 0.6 ml of 20% trichloroacetic acid, uniformly mixed, and stood for 10 min, centrifugated at 2000 r for 10 min, 1.2 ml of supernatant fluid was added with 0.6 ml of 0.67% TBA, and put into a boiling water bath for 10 min, then cooled, and OD value was determined at 532 nm.
Experimental data was represented by x±SEM, SPSS13.0 statistical software was applied, homogeneity of variance was judged by single-factor variance analysis. The homogeneity of variance was tested by LSD, the non-homogeneity of variance was tested by Dunnett's T3, the significant differences between the groups were compared and P<0.05 represented a statistical significance.

The subject of series [3] is MDCK-MDR1 cells. The source says: MDCK-MDR1 cells are monolayer cells with high expression of a P-gp transporter after MDR1 genes are transfected in MDCK (Madin-Darby canine kidney epithelial cells). Due to the compactness of the monolayer cells and high expression of a pharmaceutical efflux protein, the cells have a similarity to the structure of the blood-brain barrier (BBB), and can be used as one of the models for evaluating the BBB permeability. Because the compounds of the present invention targeted at the central nervous system and were needed to permeate the BBB, the MDCK-MDR1 cells were applied to research the membrane permeability, and the BBB permeability was preliminarily evaluated.
The cryopreserved MDCK-MDR1 cells were fast thawed in a 37° C. water bath. The postthawed cells were added into a DMEM culture medium containing 10% FBS, cultured in an incubator at 37° C., 5% CO2, with the relative humidity of 90%, and the culture medium was replaced every other day. After 1-2 days' growth for cell fusion, the cells were digested at 37° C., with the mixed digestion solution of 0.25% trysin-EDTA (0.2%), and subcultured according to a certain ratio, wherein the cells used for the experiment are 40˜60-generation cells.
When 80% of the cells were fused, the cells were suspended with a complete culture medium, and inoculated into a Millicell plate according to 1×10^6-mL^−1. The culture solution was changed once every two days, then once every day after 1 week. After cultured for 5 days, the cells were ready for transport experiment when the resistance achieves a platform (>2000 Ω·cm^2).
The solution in the lower pools was collected at 0, 30, 90 and 120 min and stored at −20° C. for later measurement. The permeation amount of the Rho-123 in the lower pools was detected by a fluorescence spectrophotometer, wherein the transmission wavelength was set to […] and the excitation wavelength was set to 530 nm.
The Millicell inoculated with cells was soaked with HBSS solution at 37° C. for an appropriate time before the test, and slightly flushed to remove matters attached on the surfaces of the cells. […] Each concentration was repeated in three wells, the sample was precisely added with 50 μL of internal standard solution and 350 μL of ethyl acetate, shaked and uniformly mixed, centrifugated at 12000 rmp for 5 min, 300 μL of supernatant was took, volatilized to dryness, re-dissolved with 50 μL of acetonitrile and 10 μL was took for sampling and determination. Permeability from the basal surface to the cavity surface: drug was added from the basolateral side (BL), while the blank HBSS solution was added from the apical side (AP), and the following steps were same as those in the permeability test from the cavity surface to the basal surface.
The apparent permeability coefficient (Papp) of the drug reflected the capability of permeating the monolayer cells of the drug and the absorption speed and degree of the drug, which can be calculated by the following formula: […]
wherein, ΔQ was the permeation amount of the drug in a Δt time period, A was the surface area of the cells, namely the area (0.6 cm^2) of a support membrane in the model, and CO was the initial concentration. The unit of the Papp was commonly represented by cm·h^−1 or cm·s^−1.
The sample was detected by LC/MS. Concentration of each sample was quantified with a standard curve (50 nM-10000 nM).

[4] abbreviates: compound 1 pM + NGF (0.15 ng/mL).
[5] abbreviates: compound 100 pM + NGF (0.15 ng/mL).

Consider `Cc1ccc(S(=O)(=O)N2CCSC[C@H]2C(=O)N[C@H](CC(C)C)C(=O)O)cc1` (hydrate or solvate) [Example 10, (2R)-4-Methyl-2-{[(3R)-4-(toluene-4-sulfonyl)-thiomorpholine-3-carbonyl]-amino}-pentanoic acid], for which the melting point – broadly, the temperature, or range, at which the solid turns liquid – lay in the range of 87 to 89 °C.

`CCOC(=O)[C@H](CC(C)C)NC(=O)[C@@H]1CSCCN1S(=O)(=O)c1ccc(C)cc1` [Example 5, (2S)-4-Methyl-2-{[(3R)-4-(toluene-4-sulfonyl)-thiomorpholine-3-carbonyl]-amino}-pentanoic acid ethyl ester]: the “Mean score (growth of neurite of chicken embryonic dorsal root ganglion)” value (“Mean score” for short) in series [1] (setting [4]) is on record as 0.65. For the same molecule, in series [1] (setting [5]), the “Mean score” value was determined as 1.55. For the same molecule, in series [2], the Neural deficit score stood at 3.62 ± 0.31 and the MDA content amounted to 36.09 ± 1.85 nmol/g. In addition, the “Papp(×10^−6)” value in series [3] is listed as 8.38 ×10^−6.

Turning to `CCOC(=O)[C@@H](CC(C)C)NC(=O)[C@@H]1CSCCN1S(=O)(=O)c1ccc(C)cc1` [Example 6, (2R)-4-Methyl-2-{[(3R)-4-(toluene-4-sulfonyl)-thiomorpholine-3-carbonyl]-amino}-pentanoic acid ethyl ester], the “Mean score” value in series [1] (setting [4]) worked out at 1.23. The “Mean score” value in series [1] (setting [5]) was 1.88. Moreover, in series [2], the Neural deficit score came out at 3.08 ± 0.40 and the MDA content worked out at 30.87 ± 0.95 nmol/g. Also, the “Papp(×10^−6)” value in series [3] is 19.2 ×10^−6.

Consider `CCCOC(=O)[C@@H](CC(C)C)NC(=O)[C@@H]1CSCCN1S(=O)(=O)c1ccc(C)cc1` [Example 7, (2R)-4-Methyl-2-{[(3R)-4-(toluene-4-sulfonyl)-thiomorpholine-3-carbonyl]-amino}-pentanoic acid propyl ester], for which the “Mean score” value in series [1] (setting [4]) stood at 1.46. Moreover, the “Mean score” value in series [1] (setting [5]) is reported as 1.95. In series [2], this molecule yielded a Neural deficit score of 2.91 ± 0.28 and an MDA content of 34.90 ± 1.65 nmol/g. Also, the “Papp(×10^−6)” value in series [3] is 49.8 ×10^−6.

As to `Cc1ccc(S(=O)(=O)N2CCSC[C@H]2C(=O)N[C@H](CC(C)C)C(=O)OC(C)C)cc1` [Example 8, (2R)-4-Methyl-2-{[(3R)-4-(toluene-4-sulfonyl)-thiomorpholine-3-carbonyl]-amino}-pentanoic acid isopropyl ester], the “Mean score” value in series [1] (setting [4]) came to 1.68. Besides, in series [1] (setting [5]), the “Mean score” value amounted to 2.25. In series [2], this molecule came in with a Neural deficit score of 2.67 ± 0.31 and an MDA content of 33.27 ± 1.91 nmol/g. In series [3], the “Papp(×10^−6)” value was 39.5 ×10^−6.

Consider `Cc1ccc(S(=O)(=O)N2CCSC[C@H]2C(=O)N[C@H](CC(C)C)C(=O)OCc2ccccc2)cc1` [Example 9, (2R)-4-Methyl-2-{[(3R)-4-(toluene-4-sulfonyl)-thiomorpholine-3-carbonyl]-amino}-pentanoic acid benzyl ester], for which the melting point is 91 to 93 °C. In series [3], the “Papp(×10^−6)” value is given as 12.4 ×10^−6.

Regarding `Cc1ccc(S(=O)(=O)N2CCSC[C@H]2C(=O)N[C@H](CC(C)C)C(=O)O)cc1` [Example 10, (2R)-4-Methyl-2-{[(3R)-4-(toluene-4-sulfonyl)-thiomorpholine-3-carbonyl]-amino}-pentanoic acid], in series [3], the “Papp(×10^−6)” value was 34.1 ×10^−6.
